Measured values as given in patent US6737383B1, “Herbicidal oxadiazolidines” (priority 1999, dated 2004).

Assays:
[1] = system: corn; assay: Test B pre/postemergence corn; type: in vivo, Zea mays; conditions: for Corn plant response rating: scale of 0 to 10 where 0 is no effect and 10 is complete control
Summary of the method: (§1)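 Response is a visual 0-to-10 score relative to untreated plants, where 0 means no effect and 10 means complete control, taken twelve to sixteen days after application. Treatments went onto soil at planting and onto foliage of 1- to 4-leaf plants, using a surfactant-containing non-phytotoxic solvent.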

[2] = system: soybean; assay: Test B pre/postemergence soybean; type: in vivo, Glycine max; conditions: for Soybean plant response rating: scale of 0 to 10 where 0 is no effect and 10 is complete control
Summary of the method: as §1

[3] = system: surinam grass; assay: Test B pre/postemergence surinam grass; type: in vivo, Brachiaria decumbens
Summary of the method: as §1

[4] = system: bedstraw; assay: Test B pre/postemergence bedstraw; type: in vivo, Galium aparine
Summary of the method: as §1

[5] = system: sugar beet; assay: Test B pre/postemergence sugar beet; type: in vivo, Beta vulgaris; conditions: for Sugarbeets plant response rating: scale of 0 to 10 where 0 is no effect and 10 is complete control
Summary of the method: as §1

[6] = system: pigweed; assay: Test B pre/postemergence pigweed; type: in vivo, Amaranthus retroflexus; conditions: for Redroot pigweed plant response rating: scale of 0 to 10 where 0 is no effect and 10 is complete control
Summary of the method: as §1

[7] = system: smallflower flatsedge; assay: Test B flood test smallflower flatsedge; type: in vivo, Cyperus difformis
Summary of the method: (§2)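 Each value is a visual injury score relative to controls, with 10 meaning complete control and 0 no effect. Evaluation took place twelve to sixteen days after the 2-leaf-stage plants were treated and kept in the greenhouse.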

[8] = system: giant foxtail; assay: Test B pre/postemergence giant foxtail; type: in vivo, Setaria faberii; conditions: for Giant foxtail plant response rating: scale of 0 to 10 where 0 is no effect and 10 is complete control
Summary of the method: as §1

[9] = system: rice; assay: Test B flood test rice; type: in vivo, Oryza sativa
Summary of the method: as §2

[10] = system: blackgrass; assay: Test B pre/postemergence blackgrass; type: in vivo, Alopecurus myosuroides
Summary of the method: as §1

[11] = system: velvetleaf; assay: Test B pre/postemergence velvetleaf; type: in vivo, Abutilon theophrasti; conditions: for Velvetleaf plant response rating: scale of 0 to 10 where 0 is no effect and 10 is complete control
Summary of the method: as §1

[12] = system: bamyardgrass; assay: Test B flood test barnyardgrass; type: in vivo, Echinochloa crus-galli
Summary of the method: as §2

[13] = system: rape; assay: Test B pre/postemergence rape; type: in vivo, Brassica napus; conditions: for Rape plant response rating: scale of 0 to 10 where 0 is no effect and 10 is complete control
Summary of the method: as §1

[14] = system: purple nutsedge; assay: Test B pre/postemergence purple nutsedge; type: in vivo, Cyperus rotundus; conditions: for Nutsedge plant response rating: scale of 0 to 10 where 0 is no effect and 10 is complete control
Summary of the method: as §1

[15] = system: morningglory; assay: Test B pre/postemergence morningglory; type: in vivo, Ipomoea hederacea; conditions: for Morningglory plant response rating: scale of 0 to 10 where 0 is no effect and 10 is complete control
Summary of the method: as §1

[16] = system: duck salad; assay: Test B flood test duck salad; type: in vivo, Heteranthera limosa
Summary of the method: as §2

[17] = Postemergence, Rate 125 g/ha, scale 0 to 10, 0 is no effect, 10 is complete control
[18] = Rate 500 g/ha, Postemergence, scale 0 to 10, 0 no effect, 10 complete control
[19] = Preemergence, Rate 62 g/ha, scale of 0 to 10 where 0 is no effect and 10 is complete control
[20] = Preemergence, Rate 250 g/ha, scale of 0 to 10 where 0 is no effect and 10 is complete control
[21] = Preemergence, Rate 500 g/ha, scale of 0 to 10 where 0 is no effect and 10 is complete control
[22] = Rate 62 g/ha, Postemergence, scale of 0 to 10 where 0 is no effect and 10 is complete control
[23] = Rate 250 g/ha, Postemergence, scale of 0 to 10 where 0 is no effect and 10 is complete control
[24] = Rate 62 g/ha, headed Pre-emergence (flood test species), scale 0 to 10 (0 no effect, 10 complete control)
[25] = Rate 125 g/ha, Pre-emergence, flood test species, scale 0 to 10 where 0 is no effect and 10 is complete control
[26] = Rate 250 g/ha, Pre-emergence, flood-test species, scale 0 to 10, 0 is no effect, 10 is complete control
[27] = Rate 500 g/ha, Pre-emergence, flood test species, scale 0 to 10 (0 no effect, 10 complete control)

Compound: CC(C)N(C(=O)n1oc(=O)n(C2CCCCCC2)c1=O)c1ccc(Cl)cc1 [Compound 339]
- Plant response rating, Corn [1, 17]: 0
- Corn plant response rating ([1]; Preemergence, Rate 62 g/ha): 0
- Corn plant response rating (0 to 10 scale) ([1]; Preemergence, Rate 125 g/ha): 0
- Corn plant response rating ([1]; Preemergence, Rate 250 g/ha): 0
- Corn plant response rating ([1]; Preemergence, Rate 500 g/ha): 0
- Corn plant response rating ([1]; Rate 62 g/ha, Postemergence): 0
- Plant response rating, Corn [1, 18]: 0
- Plant response rating, Soybean [2, 17]: 1
- Soybean plant response rating ([2]; Preemergence, Rate 62 g/ha): 0
- Soybean plant response rating (0 to 10 scale) ([2]; Preemergence, Rate 125 g/ha): 0
- Soybean plant response rating ([2]; Preemergence, Rate 250 g/ha): 0
- Soybean plant response rating ([2]; Preemergence, Rate 500 g/ha): 0
- Soybean plant response rating ([2]; Rate 62 g/ha, Postemergence): 1
- Plant response rating, Soybean [2, 18]: 4
- Plant response rating, B. signalgrass [3, 17]: 0
- B. signalgrass plant response rating [3, 19]: 0
- B. signalgrass plant response rating (0 to 10 scale, 0 is no effect, 10 is complete control) ([3]; Preemergence, Rate 125 g/ha): 0
- B. signalgrass plant response rating [3, 20]: 0
- B. signalgrass plant response rating [3, 21]: 0
- B. signalgrass plant response rating [3, 22]: 0
- Plant response rating, B. signalgrass [3, 23]: 0
- Plant response rating, B. signalgrass [3, 18]: 0
- Plant response rating, Bedstraw [4, 17]: 2
- Bedstraw plant response rating [4, 19]: 0
- Bedstraw plant response rating (0 to 10 scale) ([4]; Preemergence, Rate 125 g/ha): 0
- Bedstraw plant response rating [4, 20]: 0
- Bedstraw plant response rating [4, 21]: 0
- Bedstraw plant response rating [4, 22]: 0
- Plant response rating, Bedstraw [4, 23]: 7
- Plant response rating, Bedstraw [4, 18]: 8
- Plant response rating, Sugarbeets [5, 17]: 0
- Sugarbeets plant response rating ([5]; Preemergence, Rate 62 g/ha): 0
- Sugarbeets plant response rating (0 to 10 scale) ([5]; Preemergence, Rate 125 g/ha): 0
- Sugarbeets plant response rating ([5]; Preemergence, Rate 250 g/ha): 0
- Sugarbeets plant response rating ([5]; Preemergence, Rate 500 g/ha): 0
- Sugarbeets plant response rating ([5]; Rate 62 g/ha, Postemergence): 0
- Plant response rating, Sugarbeets [5, 18]: 0
- Plant response rating, Redroot pigweed [6, 17]: 2
- Redroot pigweed plant response rating ([6]; Preemergence, Rate 62 g/ha): 0
- Redroot pigweed plant response rating (0 to 10 scale) ([6]; Preemergence, Rate 125 g/ha): 0
- Redroot pigweed plant response rating ([6]; Preemergence, Rate 250 g/ha): 0
- Redroot pigweed plant response rating ([6]; Preemergence, Rate 500 g/ha): 0
- Redroot pigweed plant response rating ([6]; Rate 62 g/ha, Postemergence): 0
- Plant response rating, Redroot pigweed [6, 18]: 6
- S. Flatsedge plant response rating [7, 24]: 0
- S. Flatsedge plant response rating [7, 25]: 0
- S. Flatsedge plant response rating [7, 26]: 0
- S. Flatsedge plant response rating [7, 27]: 1
- Plant response rating, Giant foxtail [8, 17]: 0
- Giant foxtail plant response rating ([8]; Preemergence, Rate 62 g/ha): 1
- Giant foxtail plant response rating (0 to 10 scale) ([8]; Preemergence, Rate 125 g/ha): 3
- Giant foxtail plant response rating ([8]; Preemergence, Rate 250 g/ha): 9
- Giant foxtail plant response rating ([8]; Preemergence, Rate 500 g/ha): 10
- Giant foxtail plant response rating ([8]; Rate 62 g/ha, Postemergence): 0
- Plant response rating, Giant foxtail [8, 18]: 0
- Rice plant response rating [9, 24]: 0
- Rice plant response rating [9, 25]: 0
- Rice plant response rating [9, 26]: 0
- Rice plant response rating [9, 27]: 1
- Plant response rating, Blackgrass [10, 17]: 0
- Blackgrass plant response rating [10, 19]: 0
- Blackgrass plant response rating (0 to 10 scale) ([10]; Preemergence, Rate 125 g/ha): 0
- Blackgrass plant response rating [10, 20]: 2
- Blackgrass plant response rating [10, 21]: 3
- Blackgrass plant response rating [10, 22]: 0
- Plant response rating, Blackgrass [10, 23]: 0
- Plant response rating, Blackgrass [10, 18]: 2
- Plant response rating, Velvetleaf [11, 17]: 0
- Velvetleaf plant response rating ([11]; Preemergence, Rate 62 g/ha): 0
- Velvetleaf plant response rating (0 to 10 scale) ([11]; Preemergence, Rate 125 g/ha): 0
- Velvetleaf plant response rating ([11]; Preemergence, Rate 250 g/ha): 0
- Velvetleaf plant response rating ([11]; Preemergence, Rate 500 g/ha): 0
- Velvetleaf plant response rating ([11]; Rate 62 g/ha, Postemergence): 0
- Plant response rating, Velvetleaf [11, 18]: 0
- Barnyardgrass plant response rating [12, 24]: 2
- Barnyardgrass plant response rating [12, 25]: 8
- Barnyardgrass plant response rating [12, 26]: 9
- Barnyardgrass plant response rating [12, 27]: 9
- Plant response rating, Rape [13, 17]: 1
- Rape plant response rating ([13]; Preemergence, Rate 62 g/ha): 0
- Rape plant response rating (0 to 10 scale) ([13]; Preemergence, Rate 125 g/ha): 0
- Rape plant response rating ([13]; Preemergence, Rate 250 g/ha): 0
- Rape plant response rating ([13]; Preemergence, Rate 500 g/ha): 0
- Rape plant response rating ([13]; Rate 62 g/ha, Postemergence): 0
- Plant response rating, Rape [13, 18]: 5
- Plant response rating, Nutsedge [14, 17]: 0
- Nutsedge plant response rating ([14]; Preemergence, Rate 62 g/ha): 0
- Nutsedge plant response rating (0 to 10 scale) ([14]; Preemergence, Rate 125 g/ha): 0
- Nutsedge plant response rating ([14]; Preemergence, Rate 250 g/ha): 0
- Nutsedge plant response rating ([14]; Preemergence, Rate 500 g/ha): 0
- Nutsedge plant response rating ([14]; Rate 62 g/ha, Postemergence): 0
- Plant response rating, Nutsedge [14, 18]: 0
- Plant response rating, Morningglory [15, 17]: 2
- Morningglory plant response rating ([15]; Preemergence, Rate 62 g/ha): 0
- Morningglory plant response rating (0 to 10 scale) ([15]; Preemergence, Rate 125 g/ha): 0
- Morningglory plant response rating ([15]; Preemergence, Rate 250 g/ha): 0
- Morningglory plant response rating ([15]; Preemergence, Rate 500 g/ha): 0
- Morningglory plant response rating ([15]; Rate 62 g/ha, Postemergence): 2
- Plant response rating, Morningglory [15, 18]: 10
- Ducksalad plant response rating [16, 24]: 0
- Ducksalad plant response rating [16, 25]: 0
- Ducksalad plant response rating [16, 26]: 0
- Ducksalad plant response rating [16, 27]: 3
